Reference: patent US20070225242A1, “Method and composition for treating and preventing tumor metastasis in vivo” (The Board of Trustees of the Leland Stanford Junior …, priority 2005, published 2007)

Legend:
LOX = target: T1, LOX (Homo sapiens, UniProt P28300); assay: LOX fluorescent activity assay, in vitro (conditioned medium from hypoxic cells); format: biochemical; conditions: 500 μM BAPN, set as 0 fluorescence
T1 construct: endogenous in cells; host or cells: Hypoxic cancer cells
T1 sequence (P28300 169-417): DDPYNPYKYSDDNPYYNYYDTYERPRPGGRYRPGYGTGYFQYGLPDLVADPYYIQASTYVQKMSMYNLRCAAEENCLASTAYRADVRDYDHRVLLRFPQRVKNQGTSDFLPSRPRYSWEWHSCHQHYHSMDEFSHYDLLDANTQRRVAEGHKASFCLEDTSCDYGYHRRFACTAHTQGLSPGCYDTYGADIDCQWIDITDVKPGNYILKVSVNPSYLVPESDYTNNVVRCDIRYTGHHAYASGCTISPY
Text: LOX activity may be measured in a number of ways, using a soluble elastin or soluble collagen with labeled lysine as a substrate. Details of an activity assay are given in Royce et al., “Copper metabolism in mottled mouse mutants. The effect of copper therapy on lysyl oxidase activity in brindled (Mobr) mice,” Biochem J. 1982 Feb. 15; 202(2): 369-371. Especially preferred is a […] assay. One is described in Palamakumbura, et al. “A fluorometric assay for detection of lysyl oxidase enzyme activity in biological samples,” Anal Biochem. 2002 Jan. 15; 300(2):245-51. This method was used in the present work to assess LOX inhibition by BAPN and by anti-LOX antibody in cells in culture (using conditioned media) and in mice (using plasma), in a 96-well format.
LOX activity assay. The original method is described in Folgelgren, et al. J. Biol. Chem. 280:24690-24697 (2005). For the in vivo data, terminal bleeds were taken at the end of the experiment described above from untreated (control) mice, 2 and 3 wk BAPN mice, and antibody-treated mice. […] For the in vitro data, 50 μl of conditioned phenol-red-free medium was taken from cells incubated for 24 h under conditions of hypoxia. Samples were incubated overnight at 37° C. with different concentrations of BAPN or with purified LOX antibody at a concentration equivalent to 20 mg kg^−1 dose. Again, 0=fluorescent reading for 500 μM BAPN.

MDA231 cells = assay: Pulmonary metastases from orthotopic MDA231 tumors with conditioned media injections after bone marrow transplantation; format: in vivo, mice
Text: We then determined whether elevated levels of circulating LOX from hypoxic tumor cells could affect BMDC recruitment and formation of the metastatic niche. We transplanted male bone marrow cells into female mice prior to orthotopically implanting Wt or LOX shRNA MDA231 cells, and used in situ hybridization with a Y-chromosome-specific probe to investigate BMDC recruitment. We allowed two weeks for primary tumor formation, and then supplemented the mice with different levels of circulating LOX for four weeks by daily intraperitoneal CM injections (FIG. 20B).
Nude (nu/nu) 6-week old female mice were lethally irradiated (950 rads) and transplanted with 10^6 bone marrow cells isolated from the tibia and femur of nude (nu/nu) male mice 48 hr later. After 4 weeks, 10^7 MDA231 human breast cancer cells expressing either an shRNA targeting LOX or a scrambled control sequence were implanted orthotopically in the mammary fat pad.
Conditioned media (CM) consisted of serum-free Modified Eagle's Medium cultured on MDA231 LOX shRNA or control cells incubated in normoxia (N; 21% O2) or hypoxia (H; 2% O2) for 24 h. CM was passed through a 0.22-μm filter and 300-μl were injected intraperitoneally daily into mice (Kaplan (2005), supra). When stated, beta-aminoproprionitrile was added to CM for an injection dose of 100 mg/kg. […]

MMP-2 = assay: MMP gelatin zymography of RAW macrophages incubated with conditioned media; format: cell-based; conditions: BMDCs incubated 24 h with CM from hypoxic Wt cells
Protocol: We examined changes in BMDC MMP activity induced by CM (FIG. 21C). MMP-9 activity was not affected by LOX or FN alone, but was elevated in CM supplemented with FN regardless of LOX status. This is consistent with our finding that FN has a stronger influence than LOX on BMDC migration.
Gelatin enzymography was performed to assess MMP activity as described. Protein concentrations were quantified to ensure equal loading.

MDA231 and SiHa cells = assay: In vitro invasion assay (Matrigel-coated inserts); format: cell-based; conditions: various human cancer cells; 24 hr oxygen deprived
Protocol: The first step of the metastatic process is cell invasion. […] The invasion of various human cancer cells in vitro was examined. […] Because LOX is a copper-dependent enzyme that can act intracellularly or extracellularly, cells were treated with bathocuprione disulphonate (BCS), a copper chelator that cannot permeate the cell membrane.
Invasive behavior was examined in vitro as previously described. Briefly, cells were serum deprived for 24 h then 2.5×10^4 cells were seeded in triplicate on both Matrigel-coated and uncoated inserts, moved to chambers containing 750 μl of FBS as a chemo-attractant and incubated at in normoxic or oxygen deprived conditions for 24 hr. Treatments with beta-aminoproprionitrile or bathocuprione disulphonate (Sigma) were performed 24 h prior to serum deprivation, and continued throughout the experiment.

human cancer cells = assay: Cell viability; format: cell-based; conditions: data not shown
lung and bone metastases = assay: Lung and bone metastases in treated mice (FIG. 17); format: in vivo; conditions: FIGS. 17A-D
Protocol: FIGS. 17A-C are pictures of lungs from mice which were treated and untreated with LOX shRNA, a LOX antibody or BAPN, showing the effect of LOX treatment on metastases in lung.
FIGS. 17A-C are pictures of lungs from mice which were treated and untreated with LOX shRNA, the LOX antibody in Example 7 or BAPN, showing the effect of LOX treatment on metastases in lung.

N#CCCN [BAPN, β-aminoproprionitrile]
LOX inhibition (LOX): complete LOX inhibition
pulmonary metastases of mice bearing Wt tumors (MDA231 cells; 6 wk post-orthotopic implantation): eliminated
increase in LOX shRNA tumor cell metastases in response to CM from hypoxic Wt cells (MDA231 cells; BAPN added to CM, injection dose 100 mg/kg): could be prevented
MMP-2 activity (MMP-2): reduced
increased invasion under hypoxia or anoxia (MDA231 and SiHa cells): could be prevented
cell viability (human cancer cells): Neither treatment with BAPN nor treatment with BCS affected cell viability
lung and bone metastases (lung and bone metastases): either stabilized disease or regression of lung and bone metastases
